Source: article PMC6733874, “Zebrafish behavioural profiling identifies GABA and serotonin receptor ligands related to sedation and paradoxical excitation” (Nature Communications, 2019)

Each compound was assayed on zebrafish. Settings: average phenoscore at highest scoring treatment.
Type: in vivo

SMILES | phenoscore category
C[C@]12CC[C@@H](O)C[C@H]1CC[C@@H]1[C@@H]2CC[C@]2(C)[C@@H](C(=O)CO)CC[C@@H]12 [THDOC, tetrahydrodeoxycorticosterone] | intermediate (intermediate phenoscores (0.51 < x < 0.71))

Same assay, conditions: co-treatment; in words

SMILES | effect on eASRs caused by HTR6 antagonists
CCc1[nH]c2ccc(OC)cc2c1CCN(C)C.O=C(O)C(=O)O [EMDT oxalate] | did not suppress eASRs

Same assay, conditions: dutasteride 3.0 μM + progesterone 2.5 μM

SMILES | effect on progesterone's etomidate-like phenotype
C[C@]12C=CC(=O)N[C@@H]1CC[C@@H]1[C@@H]2CC[C@]2(C)[C@@H](C(=O)Nc3cc(C(F)(F)F)ccc3C(F)(F)F)CC[C@@H]12 [dutasteride] | suppressed

Same assay, conditions: larvae; low-volume acoustic stimulus

SMILES | enhanced acoustic startle response (eASR) phenotype, in words
CCN(Cc1ccccc1)C(=O)Cn1c(=O)n(C)c2cnc(-c3ccccc3)nc21 [AC 5216] | caused eASRs in vivo
O=C(Nc1c(-c2cccs2)nc2ccccn12)c1ccc(Cl)cc1 [DS2] | did not cause eASRs
Cc1cccc(C#Cc2ccccc2)n1 [MPEP] | reproducibly caused eASRs
CCC(C)N(C)C(=O)c1cc2ccccc2c(-c2ccccc2Cl)n1 (centres unmarked) [PK 11195] | caused eASRs in vivo
Oc1noc2c1CCNC2 [THIP, gaboxadol] | did not cause eASRs
COc1ccccc1N1CCN(C(=O)COc2ccc(Cl)cc2Br)CC1 [compound 5801496] | did not cause eASRs in vivo
Fc1ccc2c(CCNCc3cccc(OCC(F)(F)C(F)F)c3)c[nH]c2c1 [idalopirdine] | reproducibly caused eASRs in vivo
FC(F)OC(Cl)C(F)(F)F (centres unmarked) [isoflurane] | not all anesthetics caused eASR behaviors
O=C(c1ccccn1)c1cnn2c(-c3ccncc3)ccnc12 [ocinaplon] | produced a behavioral profile that resembled the negative
CCOC(=O)c1cccc(N)c1 [tricaine] | not all anesthetics caused eASR behaviors

Same assay, conditions: zebrafish, in vivo

SMILES | Phenoscore | eASR magnitudes in animals treated with M-current ligands | enhanced acoustic startle response (eASR) phenotype, in words
CCCN(CCC)C1CCc2cccc(O)c2C1 (centres unmarked) [8-HYDROXY-DPAT] | 0.49 | – | –
NCCc1c[nH]c2c(O)cc(O)cc12 [57-DIHYDROXYTRYPTAMINE] | 0.05 | – | –
CC(N)Cc1c[nH]c2ccc(OCc3cccs3)cc12 (centres unmarked) [BW 723C86] | 0.1 | – | –
Cc1c(OCc2cccc(-c3ccc(C(=O)O)cc3)c2)cc2c(c1C)C(=O)C(C1CCCC1)C2 (centres unmarked) [Biphenylindanone A] | 0.11 | – | –
CCc1c(C(=O)OC)ncc2[nH]c3cc(OC)c(OC)cc3c12 [DMCM] | 0.54 | – | –
COc1cc(CC(C)N)c(OC)cc1I.Cl (centres unmarked) [DOI HYDROCHLORIDE] | 0.1 | – | –
Cc1[nH]c2ccc(Cl)cc2c1C1=CCNCC1.Cl [EMD 386088 HYDROCHLORIDE] | 0.15 | – | –
CN1CC(=O)NC1=NC(=O)Nc1cccc(Cl)c1 [Fenobam] | 0.3 | – | –
NCCCC(=O)O [GABA] | 0.21 | – | –
CN(C)CCCc1cc(C(=O)Nc2ccc(-c3ccncc3)cc2)ccc1O.Cl.Cl [GR 55562 DIHYDROCHLORIDE] | 0.24 | – | –
O=C(Nc1cnc(Cl)nc1)c1ccc(F)c(F)c1 [ICA-069673] | – | significantly decreased | –
CCOC(=O)c1ncn2c1[C@@H]1CCCN1C(=O)c1cc(OC)ccc1-2 [L-655,708] | 0.51 | – | –
NC(CCP(=O)(O)O)C(=O)O [L-AP4] | 0.1 | – | –
CSc1ccc2c(c1)C(N1CCN(C)CC1)Cc1ccccc1S2 (centres unmarked) [METHIOTHEPIN] | 0.33 | – | –
Cc1cccc(C#Cc2ccccc2)n1 [MPEP] | 0.73 | – | –
COc1ccc2c(c1)c(CCN(C)C)cn2S(=O)(=O)c1ccccc1.O=C(O)C(=O)O [MS 245 OXALATE] | 0.09 | – | –
Cc1nccn1CC1CCc2c(c3ccccc3n2C)C1=O.Cl (centres unmarked) [Ondansetron Hydrochloride] | 0.13 | – | –
O=C(O)/C=C\C(=O)O.c1ccc2nc(N3CCNCC3)ccc2c1 [Quipazine maleate salt] | 0.16 | – | –
NC[C@H](CC(=O)O)c1ccc(Cl)cc1 [R-Baclofen] | 0.26 | – | –
CNc1cc(NS(=O)(=O)c2ccc(N)cc2)nc(NC)n1 [Ro 04-6790] | 0.11 | – | –
COc1ccc(S(=O)(=O)Nc2cc(Cl)cc(Cl)c2OC)cc1N1CCNCC1.Cl [SB 399885 hydrochloride] | 0.16 | – | –
COc1ccc(NC(=O)c2ccc(-c3ccc(-c4noc(C)n4)cc3C)cc2)cc1OCCN(C)C [SB-216641] | 0.11 | – | –
O=C(N/N=C/c1ccccc1O)c1ccccc1O [SCS] | 0.04 | – | –

SMILES | Phenoscore | eASR magnitudes in animals treated with M-current ligands | enhanced acoustic startle response (eASR) phenotype, in words
CCN(CC)CCOC(=O)c1cc(Cl)c(N)cc1OC [SDZ-205557] | 0.07 | – | –
Br.COc1ccc(-c2ccc(=N)n(CCCC(=O)O)n2)cc1 [SR-95531] | 0.21 | – | –
Cc1[nH]c2ccc(Cl)cc2c1CCN(C)C.O=C(O)C(=O)O [ST 1936 OXALATE] | 0.09 | – | –
NC/C=C/C(=O)O [TACA] | 0.07 | – | –
CC1(C)CC(=O)c2c(SCCO)sc(-c3nccs3)c2C1 [TB 21007] | 0.12 | – | –
COc1cc(Br)c(OC)c2c1[C@H](CN)C2 [TCB-2] | 0.1 | – | –
N[C@@H](Cn1ccc(=O)n(Cc2ccccc2C(=O)O)c1=O)C(=O)O [UBP 302] | 0.17 | – | –
O=C([O-])[C@H]1CCCC[C@H]1C(=O)Nc1cc(Cl)cc(Cl)c1.[Na+] [VU 0155041 Na Salt] | 0.11 | – | –
CN(C)CCn1cc(S(=O)(=O)c2cccc(F)c2)c2cccnc21 [WAY 208466] | 0.21 | – | –
O=C1c2ccccc2C(Cc2ccncc2)(Cc2ccncc2)c2ccccc21 [XE-991] | – | significantly increased | –
CN(C)C/C=C(\c1ccc(Br)cc1)c1cccnc1.Cl.Cl.O [Zimelidine dihydrochloride monohydrate] | 0.16 | – | –
CC(N)Cc1c[nH]c2ccc(O)cc12 (stereo not drawn) [alpha-METHYLSEROTONIN] | 0.18 | – | –
CN1CCc2cc3c(cc2[C@H]1[C@@H]1OC(=O)c2c1ccc1c2OCO1)OCO3 [bicuculline (+)] | 0.23 | – | –
CN1CCc2cc3c(cc2[C@H]1[C@@H]1OC(=O)c2c1ccc1c2OCO1)OCO3 [bicuculline (-)] | 0.05 | – | –
COc1ccccc1N1CCN(C(=O)c2ccc(C(=O)c3c(C)cc(C)cc3C)cc2)CC1 [compound 5352629] | 0.48 | – | –
CCOC(=O)c1c(C)n(Cc2ccco2)c2ccc(OC)cc12 [compound 5943451] | 0.37 | – | –
O=C(Nc1ccc(Cl)c(Cl)c1)c1ccc(Cl)cc1Cl [compound 7136301] | 0.42 | – | –
Cc1cccc([C@H](C)c2cnc[nH]2)c1C [dexmedetomidine] | – | – | not all anesthetics caused eASR behaviors
CCOC(=O)Nc1ccc(NCc2ccc(F)cc2)nc1N [flupirtine] | – | significantly decreased | –
O=C1N(c2ccccc2)c2ccccc2C1(Cc1ccncc1)Cc1ccncc1 [linopirdine] | – | significantly increased | –
O=C1CCCN1CC#CCN1CCCC1 [oxotremorine] | – | significantly increased | –
CCOC(=O)c1cc2c(cn1)[nH]c1ccccc12 [β-CCE] | 0.37 | – | –

These compounds were tested on human GABAARs (α1β2 and α1β2γ2). Settings: compound at 20 uM then 5 uM GABA; DMSO = 1.
Type: cell-based
Text: To determine if these compounds targeted human GABAARs, we tested them in a fluorescent imaging plate reader (FLIPR) assay on HEK293 cells transfected with α1β2 and α1β2γ2 human GABAAR subtypes. […]. […] While some of the compounds appeared to function in this assay as negative allosteric modulators (NAMs), reductions in fluorescence were likely due to toxicity-induced cell loss (Fig. 2f, Supplementary Table 5).
We used the FLIPR system (Molecular Devices) to quantify GABA-evoked activity of human GABAARs. We chose a membrane potential dye (Molecular Devices) to measure changes in membrane potentials and stably transfected HEK293 cells that expressed α1, β2 and γ2. Since we observed an increase in GABA-evoked responses when transfected with γ2 transiently, we describe the cells as having a low level of γ-subunit expression, indicating heterogeneity of GABAAR compositions in the cell (α1β2 or α1β2γ2). To assay for direct agonists, fluorescence was subtracted pre- and post compound addition. To assay for PAMs, cells were treated with compound at 20 uM and then with 5 uM GABA.

SMILES | Ave Norm FLIPR Score
CCOC(=O)c1c(N)sc2ccccc12 [compound 5142031] | 5.237
Clc1ccc(CSc2nc3ccccc3[nH]2)cc1 [compound 5551268] | -1.463
CC(=O)c1c(C)nc2n(Cc3ccccc3)c3ccccc3n12 [compound 5573728] | 27.62
O=C(Nc1c(C(=O)Nc2ccc(Cl)cc2)cnn1-c1ccccc1)c1ccco1 [compound 5583877] | 36.71
O=C(Nc1c(C(=O)Nc2ccc(Cl)cc2)cnn1-c1ccccc1)c1ccccc1F [compound 5587256] | -26.37
CCC(=O)c1c(C)nc2n(Cc3ccccc3)c3ccccc3n12 [compound 5649824] | 41.41
COC(=O)c1sc(NC(=O)C2CCCO2)c(C(=O)OC)c1C (centres unmarked) [compound 5690842] | 12.09
CCOC(=O)Nc1sc(C)c(CC)c1C(=O)OCC [compound 5695025] | 32.27
Nc1ccc(Oc2ccc(Cl)c3cccnc23)c(Cl)c1 [compound 5846886] | -5.255
CC(=O)/N=C(/Nc1cccc(C(F)(F)F)c1)Nc1nc(C)cc(C)n1 [compound 5869570] | 15.04
O=S(=O)(Nc1ccc(OCc2ccccc2)cc1)c1ccc2c(c1)OCCO2 [compound 6163607] | -5.679
COc1ccc(S(=O)(=O)N2CCC(C)CC2)cc1Br [compound 6366118] | 14.5
COc1cc(OC)cc(C(=O)Nc2ccc(Cl)cc2C(F)(F)F)c1 [compound 6376886] | 32.44
CCCN(CCC)S(=O)(=O)c1ccc(Cl)c(Cl)c1OC [compound 6474599] | 52.02
COc1ccccc1-c1coc2cc(OC(=O)c3cccs3)ccc2c1=O [compound 6645327] | -4.734

Same assay, conditions: compound at 20 uM then 5 uM GABA; Positive/Negative

SMILES | FLIPR Results
CCOC(=O)c1c(N)sc2ccccc12 [compound 5142031] | Positive
CC(=O)c1c(C)nc2n(Cc3ccccc3)c3ccccc3n12 [compound 5573728] | Positive
O=C(Nc1c(C(=O)Nc2ccc(Cl)cc2)cnn1-c1ccccc1)c1ccco1 [compound 5583877] | Positive
CCC(=O)c1c(C)nc2n(Cc3ccccc3)c3ccccc3n12 [compound 5649824] | Positive
COC(=O)c1sc(NC(=O)C2CCCO2)c(C(=O)OC)c1C (centres unmarked) [compound 5690842] | Positive
CCOC(=O)Nc1sc(C)c(CC)c1C(=O)OCC [compound 5695025] | Positive
CC(=O)/N=C(/Nc1cccc(C(F)(F)F)c1)Nc1nc(C)cc(C)n1 [compound 5869570] | Positive
COc1ccc(S(=O)(=O)N2CCC(C)CC2)cc1Br [compound 6366118] | Positive
COc1cc(OC)cc(C(=O)Nc2ccc(Cl)cc2C(F)(F)F)c1 [compound 6376886] | Positive
CCCN(CCC)S(=O)(=O)c1ccc(Cl)c(Cl)c1OC [compound 6474599] | Positive
